Data on 1 molecule can be found in patent publication US20030171575A1, “Process for improving sucralose purity and yield” (priority 2002, published 2003).

The structures appear in SMILES notation.

The nature of test [1]: Blinded paired palatability panel, consumer product such as ice cream with 150 ppm sucralose (Example 5). The format is in vivo, panelists. Particulars: 150 ppm sucralose in consumer product such as ice cream, served chilled. The protocol: Purified sucralose is prepared by the process of solvent-solvent extraction and sequential recrystallizations as shown in Examples 1 and 2 of the present invention. Next, sucralose is used to enhance the palatability of a consumer product.
The sucralose is added to one group (1G) of two groups (1G and 2G) of a consumer product such as ice cream to yield final levels of 150 ppm sucralose.
Panelists are selected from the general population, and no specific demographic parameters are utilized in recruiting the panelists. The two groups of samples are prepared and served chilled. Portions are dispensed into individual servings for the panelists. Samples are presented to panelists in a blinded manner (samples are identified only by a random digit label). Each panelist receives two samples for tasting, and panelists are given a randomized sequence in which to taste the samples. Thus, the order of tasting is completely random. In each set of two samples, one sample is from G1 and the other sample is from G2. Panelists are asked to select the sample that tastes the most palatable, record that result and record how confident they are of the result. […]
Statistical significance of the correctness of the scores (i.e., panelist ability to detect the most palatable sample) is determined by use of a statistical table that correlates the number of correct responses with a p value.

Test [2] in a line: Blinded three-sample taste panel, model soft drink with 100 ppm sucralose (Example 3). The format is in vivo, panelists. Particulars: 100 ppm sucralose in model soft drink (0.14% citric acid, 0.04% trisodium phosphate, pH 3.2), against samples without sucralose. Here is the method: Purified sucralose is prepared by the process of solvent-solvent extraction and sequential recrystallizations as shown in Examples 1 and 2 of the present invention. Next the taste of the resultant composition is tested in a beverage.
Sucralose solutions are prepared by adding crystalline sucralose to a model soft drink composition that contains 0.14% citric acid and 0.04% trisodium phosphate. The pH of this composition is 3.2. Crystalline sucralose compositions are added to the soft drink composition to yield final levels of 100 parts per million (ppm).
Panelists are selected from the general population, and no specific demographic parameters are utilized in recruiting the panelists. The product samples are prepared and served chilled. Portions are dispensed into individual servings for the panelists. Samples are presented to panelists in a blinded manner (samples are identified only by a random digit label). Each panelist receives three samples for tasting (one sample comprising 100 ppm sucralose and two samples not comprising sucralose), and panelists are given a randomized sequence in which to taste the samples. […]
Statistical significance of the correctness of the scores (i.e. panelist ability to detect the sample that is different from the other two) is determined by use of a statistical table that correlates the number of correct responses with a p value.

Test [3] is described as follows: Blinded three-sample taste panel, model soft drink with 10 ppm sucralose (Example 7). The format is in vivo, panelists. Particulars: 10 ppm sucralose in model soft drink (0.14% citric acid, 0.04% trisodium phosphate, pH 3.2). The protocol: Purified sucralose is prepared by the process of solvent—solvent extraction and sequential recrystallizations as shown in Examples 1 and 2 of the present invention. Next, the effect on palatability of a beverage by purified sucralose is tested.
Sucralose solutions are prepared by adding crystalline sucralose to a model soft drink composition that contains 0.14% citric acid and 0.04% trisodium phosphate. The pH of this composition is 3.2. Crystalline sucralose compositions are added to the soft drink composition to yield final levels of 10 ppm sucralose.
A model soft drink composition without sucralose is also prepared.
Panelists are selected from the general population, and no specific demographic parameters are utilized in recruiting the panelists. The product samples are prepared and served chilled. Portions are dispensed into individual servings for the panelists. Samples are presented to panelists in a blinded manner (samples are identified only by a random digit label). Each panelist receives three samples for tasting, and panelists are given a randomized sequence in which to taste the samples. […]
Statistical significance of the correctness of the scores (i.e., panelist ability to detect the sample that is different from the other two) is determined by use of a statistical table that correlates the number of correct responses with a p value.

For test [4] the following is noted: background statement; cited from earlier work.

As for `OC[C@H]1O[C@H](O[C@]2(CCl)O[C@H](CCl)[C@@H](O)[C@@H]2O)[C@H](O)[C@@H](O)[C@H]1Cl` [Sucralose, 4,1′,6′-trichloro-4,1′,6′-trideoxygalactosucrose], the “palatability against samples not comprising sucralose” value in test [1] and in test [3] was “more palatable” in each case. In addition, the “palatability of the odd sample (comments of panelists choosing the correct sample)” value in test [2] was “increased palatability”. The “sweetness intensity compared with sucrose” value in test [4] is “several hundred times”.
